Laboratory results published in patent US7196100B2, “Opioid receptor antagonists” (Eli Lilly and Company, priority 2004, dated 2007).

Tests used:
Type in all cases: biochemical
[1] = target: mu opioid receptor (MOR) (Homo sapiens, UniProt P35372); experiment: GTP-γ-S Binding Assay (SPA-based), antagonist mode vs DAMGO; settings: In vitro antagonism; agonist DAMGO 1 micromolar; Kb by Cheng-Prusoff equation
Description: (§1) An SPA—based GTP-γ-S assay format was developed based on previous opioid (Emmerson et al., J. Pharm Exp Ther 278, 1121, 1996; Horng et al., Society for Neuroscience Abstracts, 434.6, 2000) and muscarinic (DeLapp et al., JPET 289, 946, 1999) assay formats. Membranes were re-suspended in 20 mM HEPES, 100 mM NaCl, 5 mM MgCl2, 1 mM DTT, and 1 mM EDTA. Fifty (50) […] of GTP-γ-[35S], compound, membrane suspension (20 microgram/well), and wheat germ agglutinin coated SPA beads (1 mg/well) were added to clear bottom 96 well assay plates. GDP ([…]) was added to the membrane solution prior to addition to the assay plates. Plates were sealed and incubated for four hours at room temperature then placed in a refrigerator overnight to allow the beads to settle. Signal stability at 4° C. was determined to be >60 hours. Plates were warmed to room temperature and counted in a Wallac Microbeta scintillation counter. For antagonist assays, specific agonists were added at the following concentrations: (MOR) DAMGO 1 micromolar, (DOR) DPDPE 30 nM, (KOR) U69593 300 nM. Kb's were determined by Cheng-Prusoff equation (see Cheng and Prusoff, Biochem. Pharmacol. 22, 3099, 1973).

[2] = target: kappa opioid receptor (KOR) (Homo sapiens, UniProt P41145); experiment: GTP-γ-S Binding Assay (SPA-based), antagonist mode vs U69593; settings: In vitro antagonism; agonist U69593 300 nM; Kb by Cheng-Prusoff equation
Description: as §1

[3] = target: delta opioid receptor (DOR) (Homo sapiens, UniProt P41143); experiment: GTP-γ-S Binding Assay (SPA-based), antagonist mode vs DPDPE; settings: In vitro antagonism; agonist DPDPE 30 nM; Kb by Cheng-Prusoff equation
Description: as §1

Sequence of kappa opioid receptor (KOR) (P41145 whole entry): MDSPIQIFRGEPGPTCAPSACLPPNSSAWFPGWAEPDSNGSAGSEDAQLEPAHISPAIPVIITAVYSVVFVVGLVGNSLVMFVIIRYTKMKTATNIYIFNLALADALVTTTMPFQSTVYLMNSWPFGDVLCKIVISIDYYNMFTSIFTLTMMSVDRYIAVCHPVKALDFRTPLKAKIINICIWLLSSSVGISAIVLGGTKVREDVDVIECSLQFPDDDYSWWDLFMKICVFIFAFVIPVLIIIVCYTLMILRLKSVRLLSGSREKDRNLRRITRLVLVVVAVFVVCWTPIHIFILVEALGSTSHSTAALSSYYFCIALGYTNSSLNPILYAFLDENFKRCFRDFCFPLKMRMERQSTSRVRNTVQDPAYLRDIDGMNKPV
Sequence of mu opioid receptor (MOR) (P35372 whole entry): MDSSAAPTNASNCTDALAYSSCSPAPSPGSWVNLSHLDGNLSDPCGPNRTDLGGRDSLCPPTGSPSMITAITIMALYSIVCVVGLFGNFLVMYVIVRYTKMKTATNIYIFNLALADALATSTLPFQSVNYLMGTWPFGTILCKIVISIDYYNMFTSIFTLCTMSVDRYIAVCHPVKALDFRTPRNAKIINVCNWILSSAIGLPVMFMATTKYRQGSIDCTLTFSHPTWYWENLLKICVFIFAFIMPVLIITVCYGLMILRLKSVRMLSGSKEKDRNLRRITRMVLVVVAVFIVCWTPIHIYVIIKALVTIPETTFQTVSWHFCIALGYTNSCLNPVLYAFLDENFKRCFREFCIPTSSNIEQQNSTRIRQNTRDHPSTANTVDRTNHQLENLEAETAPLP
Sequence of delta opioid receptor (DOR) (P41143 whole entry): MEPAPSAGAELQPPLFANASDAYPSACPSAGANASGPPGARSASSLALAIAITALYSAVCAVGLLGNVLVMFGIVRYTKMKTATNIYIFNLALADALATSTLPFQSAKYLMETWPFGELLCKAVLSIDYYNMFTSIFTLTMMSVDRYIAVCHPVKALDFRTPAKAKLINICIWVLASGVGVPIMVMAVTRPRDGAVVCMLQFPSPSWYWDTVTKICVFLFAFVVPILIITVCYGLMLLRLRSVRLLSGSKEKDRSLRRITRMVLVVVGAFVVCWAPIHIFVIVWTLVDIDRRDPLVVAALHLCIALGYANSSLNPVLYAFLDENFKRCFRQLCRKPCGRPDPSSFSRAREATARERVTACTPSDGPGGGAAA

NC(=O)c1ccc(OC2CCC(NCCC3CCOCC3)CC2)nc1 (racemic) [Example 1, ±6-{4-[2-(Tetrahydro-pyran-4-yl)-ethylamino]-cyclohexyloxy}-nicotinamide]
Kb [1]: 0.566 µM
Kb [2]: 0.601 µM
Kb [3]: 0.819 µM

CC(C)CCNC1CCC(Oc2ccc(C(N)=O)cn2)CC1 (racemic) [Example 2, ±6-[4-(3-Methyl-butylamino)-cyclohexyloxy]-nicotinamide]
Kb [1]: 0.594 µM
Kb [2]: 0.62 µM
Kb [3]: 0.996 µM

NC(=O)c1ccc(OC2CCN(Cc3ccccn3)CC2)nc1 [Example 6, 6-(1-Pyridin-2-ylmethyl-piperidin-4-yloxy)-nicotinamide]
Kb [1]: > 1.8 µM
Kb [2]: 0.43 µM
Kb [3]: > 7.3 µM

NC(=O)c1ccc(OC2CCN(CC3CC3)CC2)nc1 [Example 7, 6-(1-Cyclopropylmethyl-piperidin-4-yloxy)-nicotinamide]
Kb [1]: 1.78 µM
Kb [2]: 1.05 µM
Kb [3]: > 7.3 µM

NC(=O)c1ccc(OC2CCN(Cc3cc4ccccc4[nH]3)CC2)nc1 [Example 8, 6-[1-(1H-Indol-2-ylmethyl)-piperidin-4-yloxy]-nicotinamide]
Kb [1]: > 1.85 µM
Kb [2]: 0.937 µM
Kb [3]: > 7.3 µM

NC(=O)c1ccc(OC2CCN(Cc3ccccc3)CC2)cc1 [Example 9, 4-(1-Benzyl-piperidin-4-yloxy)-benzamide]
Kb [1]: 1.12 µM
Kb [2]: 0.93 µM
Kb [3]: > 7.3 µM

NC(=O)c1ccc(OC2CCN(CCCc3ccccc3)CC2)cc1 [Example 10, 4-[1-(3-Phenyl-propyl)-piperidin-4-yloxy]-benzamide]
Kb [1]: 0.453 µM
Kb [2]: 0.999 µM
Kb [3]: 1.96 µM
